The test system of data set [1] is Colon 3.1-M26 (mouse colon cancer cell line). Description: Cell growth inhibition assay (SRB assay), Colon 3.1-M26. Type of data set: cell-based. The note with it: for IC50: Mus musculus, 48 h. How it is done:
(§1) HeLa (human cervical cancer cell line), v-ras-transformed NIH3T3 (mouse fibroblast cell line), Colon 3.1-M26 (mouse colon cancer cell line), MG63 (human osteosarcoma cell line) and MCF-7 (human breast cancer cell line) cells were cultured in DMEM (Dulbecco's modified Eagle's medium, produced by Life Technologies, Inc.). A2058 (human melanoma cell line), AGS (human gastric adenocarcinoma cell line), HBL-100 (human breast cancer cell line), CCD-18Co (human normal colon cell line) and LL86 (human normal lung cell line) cells were cultured in RPMI 1640 (Life Technologies, Inc.) in the presence of 10% FBS and 1% penicillin/streptomycin.
(§2) A cell growth inhibition assay according to sulforhodamine B (SRB) protein dye assay was carried out to examine the effects of apicidin derivative prepared in the Examples on mouse and human cancer cells. The cells were placed in wells and during cultivation were treated with 0.01, 0.1, 0.5, 1, and 2 μg/mL of apicidin, SD9801, SD9802, SD9803, the compound of Example 1, the compound of Example 2 and the compound of Example 3.
(§3) After 48 hours of cultivation, the media were removed from the well plates. The cells were fixed with 1 mL of 10% trichloroacetic acid at 4° C. washed 5 times with distilled water and completely dried in the air. The wells were treated with 0.4% SRB solution and died for 30 minutes at an ambient temperature. Subsequently, the wells were washed 5 times with distilled water and dried for 18 hours. To the respective wells, Tris-HCl (1 mL, 10 mM) was added to dissolve the proteins bonded to SRB. The contents of each well were removed and measured for their absorption at 490 nm.

Data set [2] concerns LL86 (human normal lung cell line). The data set is described as follows: Cell growth inhibition assay (SRB assay), LL86. Type of data set: cell-based. How it is done:
as §1, §2, §3

Data set [3] deals with v-ras-transformed NIH3T3 (mouse fibroblast cell line). Description: Cell growth inhibition assay (SRB assay), v-ras-transformed NIH3T3. The format is cell-based. The note with it: NIH3T3, 48 h. The method, then:
as §1, §2, §3
(The SRB assay estimates cell density from bound dye.)

Data set [4] has as its system AGS (human gastric adenocarcinoma cell line). Description: Cell growth inhibition assay (SRB assay), AGS. The format is cell-based. The note with it: 48 h. How it is done: as §1, §2, §3
Data set [5] has as its system HBL-100 (human breast cancer cell line). Description: Cell growth inhibition assay (SRB assay), HBL-100. Type of data set: cell-based. The note with it: HBL-100, 48 h. How it is done:
as §1, §2, §3

Data set [6] relates to CCD-18Co (human normal colon cell line). Description: Cell growth inhibition assay (SRB assay), CCD-18Co. Type of data set: cell-based. The note with it: for Growth inhibition IC50 / IC50: CCD-18Co normal cells, SRB assay; for Growth inhibition IC50: 48 hours; for IC50: Homo sapiens, CCD-18Co, 48 h. How it is done: as §1, §2, §3
The test system of data set [7] is Histone deacetylase purified from HeLa cells. Description: In vitro histone deacetylation assay. Type of data set: biochemical, human. To be noted: [3H]acetyl histone substrate, 37° C., 20 minutes; read-out: Histone deacetylase inhibition IC50. The method, then:
Histone deacetylase was purified from HeLa cells. The activity of histone deacetylase was measured according to a method known in the art—See, e.g., Inoue, A. et al., Biochem. Biophys. […] Here, histone with [^3H]acetyl group labeled with radio-active materials was used as a substrate for measurement of activity of histone deacetylase. After incubation at 37° C. for 20 minutes, [^3H]acetic acid released into medium was extracted with ethylacetate and quantified using a liquid radiation detection method.

The subject of data set [8] is A2058 (human melanoma cell line). Description: Cell growth inhibition assay (SRB assay), A2058. The format is cell-based. To be noted: for IC50: Homo sapiens, A2058, 48 h, read-out: Growth inhibition IC50, A2058 cancer cells, SRB assay, 48 hours. How it is done:
as §1, §2, §3

For data set [9], the system named is MG63 (human osteosarcoma cell line). The data set is described as follows: Cell growth inhibition assay (SRB assay), MG63. Type of data set: cell-based. The note with it: MG-63, 48 h, read-out: Growth inhibition IC50, MG63 cancer cells, SRB assay, 48 hours. How it is done:
as §1, §2
(§4) After 48 hours of cultivation, the media were removed from the well plates. The cells were fixed with 1 mL of 10% trichloroacetic acid at 4° C. washed 5 times with distilled water and completely dried in the air. […] The contents of each well were removed and measured for their absorption at 490 nm.

The test system of data set [10] is HeLa (human cervical cancer cell line). Description: Cell growth inhibition assay (SRB assay), HeLa. Type of data set: cell-based. The note with it: 48 h, read-out: Growth inhibition IC50, HeLa cancer cells, SRB assay, 48 hours. The method, then: as §1, §2, §4
The test system of data set [11] is MCF-7 (human breast cancer cell line). The data set is described as follows: Cell growth inhibition assay (SRB assay), MCF-7. The note with it: MCF7, 48 h, read-out: Growth inhibition IC50, MCF-7 cancer cells, SRB assay, 48 hours. The format is cell-based. How it is done: as §1, §2, §4
The mark [12] stands for this setting: Colon 3.1-M26 cancer cells, SRB assay, 48 hours.
Where [13] appears, read: Colon 3.1-M26 cancer cells, SRB assay, 48 hours, read-out: Growth inhibition IC50.
Where [14] appears, read: 48 h, read-out: Growth inhibition IC50, LL86 normal cells, SRB assay, 48 hours.
Where [15] appears, read: LL86 normal cells, SRB assay, 48 hours, read-out: Growth inhibition IC50.
The mark [16] stands for this setting: v-ras-transformed NIH3T3 cancer cells, SRB assay, 48 hours, read-out: Growth inhibition IC50.
The mark [17] stands for this setting: AGS cancer cells, SRB assay, 48 hours, read-out: Growth inhibition IC50.
The mark [18] stands for this setting: HBL-100 cancer cells, SRB assay, 48 hours, read-out: Growth inhibition IC50.
[19] abbreviates: read-out: Growth inhibition IC50, Colon 3.1-M26 cancer cells, SRB assay, 48 hours.
[20] abbreviates: read-out: Growth inhibition IC50, v-ras-transformed NIH3T3 cancer cells, SRB assay, 48 hours.
The mark [21] stands for this setting: read-out: Growth inhibition IC50, AGS cancer cells, SRB assay, 48 hours.
The mark [22] stands for this setting: read-out: Growth inhibition IC50, HBL-100 cancer cells, SRB assay, 48 hours.

Converted amounts (≈) assume the structure as drawn. Like-named read-outs stand apart in the source and are kept apart here. A value given as a limit tells only on which side of the number the result lay.

In general, IC50 refers to the concentration that gives 50% inhibition. Take `CCC(CCCCCC1NC(=O)C2CCCCN2C(=O)C(C(C)CC)NC(=O)C(Cc2cn(OC)c3ccccc23)NC1=O)=NN` (stereo not shown) [Example 2, Hydrazone Derivative of Apicidin]: the “Growth inhibition IC50” value in [1] (setting [12]) stood at 0.20 µg/mL; in data set [6] it was 8.51 µg/mL. The IC50 in [1] (setting [13]) was 0.2 to 2.07 µg/mL (≈ 0.314 to 3.25 µM); in [2] (setting [14]) it was 4.27 to 18.2 µg/mL (≈ 6.69 to 28.6 µM); in data set [2] (setting [15]), 16.3 µg/mL (≈ 25.6 µM); in data set [3] (setting [16]), less than 0.2 µg/mL; in data set [4] (setting [17]), less than 0.2 µg/mL; in [5] (setting [18]) it was less than 0.2 µg/mL. In addition, the IC50 in data set [6] was 4.27 to 18.2 µg/mL (≈ 6.69 to 28.6 µM); in [7], 3 nM.
For `CCC(CCCCCC1NC(=O)C2CCCCN2C(=O)C(C(C)CC)NC(=O)C(Cc2cn(OC)c3ccccc23)NC1=O)=NNC(N)=O` (stereo not shown) [Example 1, Semicarbazone Derivative of Apicidin], the “Growth inhibition IC50” value in data set [1] (setting [12]) turned out to be 0.20 µg/mL; in data set [8] (A2058 cancer cells, SRB assay, 48 hours), 0.34 µg/mL. For the same molecule, the IC50 in [1] (setting [19]) was 0.2 to 2.07 µg/mL (≈ 0.294 to 3.04 µM); in data set [3] (setting [20]), less than 0.2 µg/mL; in data set [4] (setting [21]), less than 0.2 µg/mL; in data set [5] (setting [22]) it was less than 0.2 µg/mL; in data set [8] it was 0.2 to 2.07 µg/mL (≈ 0.294 to 3.04 µM); in data set [7] it was 1 nM. Moreover, the “times higher safety against normal cell growth than the parent compound, apicidin” value in [6] (normal cell growth) is listed as “about 5 times”.
`CCC(=O)CCCCC[C@@H]1NC(=O)[C@H]2CCCCN2C(=O)[C@H]([C@@H](C)CC)NC(=O)[C@H](Cc2cn(OC)c3ccccc23)NC1=O` [Apicidin, apicidin]: the 50% inhibitory concentration (IC50) in data set [1] (setting [19]) worked out at 0.17 µg/mL (≈ 0.273 µM); in data set [2] (setting [14]), 4.25 µg/mL (≈ 6.81 µM); in [9], 1.88 µg/mL (≈ 3.01 µM); in data set [10], 0.51 µg/mL (≈ 0.818 µM); in data set [3] (setting [20]), 0.18 µg/mL (≈ 0.289 µM); in data set [4] (setting [21]), 0.13 µg/mL (≈ 0.208 µM). The IC50 in data set [5] (setting [22]) came to 0.57 µg/mL (≈ 0.914 µM); in data set [11], 1.17 µg/mL (≈ 1.88 µM); in data set [6], 2.36 µg/mL (≈ 3.78 µM); in data set [8] it was 0.55 µg/mL (≈ 0.882 µM).
For the molecule `CCC(CCCCCC1NC(=O)C2CCCCN2C(=O)C(C(C)CC)NC(=O)C(Cc2cn(OC)c3ccccc23)NC1=O)=NNC(=O)NN` (stereo not shown) [Example 4, Carbohydrazone Derivative of Apicidin], the IC50 in [7] was 39 nM.
For the molecule `CCC(CCCCCC1NC(=O)C2CCCCN2C(=O)C(C(C)CC)NC(=O)C(Cc2cn(OC)c3ccccc23)NC1=O)=NNC(C)(C)C` (stereo not shown) [Example 3, tert-butylhydrazone Derivative of Apicidin], the entries for the “Growth inhibition IC50” value in data set [1] (setting [12]) and in data set [6] were 0.21 µg/mL and 4.27 µg/mL, respectively. For the same molecule, the IC50 was 0.2 to 2.07 µg/mL (≈ 0.288 to 2.98 µM) in [1] (setting [13]); 4.27 to 18.2 µg/mL (≈ 6.15 to 26.3 µM) in [2] (setting [14]); 14.8 µg/mL (≈ 21.3 µM) in data set [2] (setting [15]); less than 0.2 µg/mL in [3] (setting [16]); less than 0.2 µg/mL in [4] (setting [17]); less than 0.2 µg/mL in [5] (setting [18]). Also, the 50% inhibitory concentration (IC50) in data set [6] was 4.27 to 18.2 µg/mL (≈ 6.15 to 26.3 µM); in data set [7], 25 nM.

Source of the values: US6831061B2, “Apicidin-derivatives, their synthetic methods and anti-tumor compositions containing them” (priority 2000, dated 2004).
